Columns and labels:
[1] = tested on: LTP in Dgcr8+/− hippocampus; experiment: Rescue of LTP increase in Dgcr8+/− mice by presynaptic restoration of miRNA (AAV into CA3); assay type: in vivo, mouse; details: presynaptic (CA3) AAV expression; injected at 10 weeks, LTP measured at 16 weeks
Method: (§1) Acute transverse hippocampal slices (400 μm) were prepared according to known methods (Earls, et al. (2010) J. Neurosci. 30:15843-15855). Briefly, mouse brains were quickly removed and placed in cold (4° C.) dissecting artificial CSF (ACSF) containing 125 mM choline-Cl, 2.5 mM KCl, 0.4 mM CaCl2, 6 mM MgCl2, 1.25 mM NaH2PO4, 26 mM NaHCO3, and 20 mM glucose (285-295 mOsm), under 95% O2/5% CO2. After dissection, slices were incubated for 1 hour in ACSF containing 125 mM NaCl, 2.5 mM KCl, 2 mM CaCl2, 2 mM MgCl2, 1.25 mM NaH2PO4, 26 mM NaHCO3, and 10 mM glucose (285-295 mOsm), under 95% O2/5% CO2 at room temperature, and then transferred into submerged recording chambers and superfused (2-3 ml/min) with warm (30-32° C.) ACSF. Field recordings were performed using a setup with eight submerged recording chambers (Campden Instruments). Recordings in each chamber were performed independently. Field EPSPs (fEPSPs) from the CA1 stratum radiatum were recorded by using an extracellular glass pipette (3-5 MΩ) filled with ACSF. Schaffer collateral fibers in the stratum radiatum were stimulated with a bipolar tungsten electrode placed 200-300 μm away from the recording pipette. Stimulation intensities were chosen to produce an fEPSP with a 0.5 V/s slope. LTP was induced by three periods of 200 Hz tetanization delivered every 5 minutes. Each period of tetanization included 10 trains of 200 Hz stimulation delivered at the same intensity for 200 ms (40 stimulations) every 5 seconds.
In Vivo Viral Injections. Adeno-associated viruses (AAVs) were prepared by cloning chimeric hairpins of them iRNAs of interest with hsa-miR-30a into the pAAV-6P-SEWB vector (Christensen, et al. (2010) Front. Neural Circuits 3:16). […]

[2] = tested on: LTP at CA3-CA1 synapses in hippocampal slices; experiment: LTP of fEPSPs in acute hippocampal slices in the presence of the SERCA inhibitor thapsigargin; assay type: cell-based, mouse
Method: as §1, with “seconds. To test whether this increase in SERCA2 was necessary for enhanced LTP in Dgcr8^+/− mice, LTP was measured in the presence of the SERCA inhibitor thapsigargin (4 μM). […] In the absence of thapsigargin, the fEPSP slope increased measured six hours after induction was approximately 120% stronger than in the presence of thapsigargin in slices from Dgcr8^+/− mice (8 mice: 21 slices vehicle, 21 slices thapsigargin; p=0.014).” for “seconds.”

SERCA2 = experiment: Quantitative western blot of SERCA2 in hippocampus after AAV-miRNA injection into CA3; assay type: in vivo, mouse; details: wild-type mice; injection into CA3 at 10 weeks, hippocampi harvested at 16 weeks; versus GFP-only vector
Method: Western blots were performed according to known methods (Earls, et al. (2010) supra). For human brain tissue, dissected samples arrived from brain banks frozen on dry ice. Mouse tissue was dissected at 4° C. and prepared either as whole-tissue lysates or as crude P2 synaptosomal fractions. Synaptosomes were prepared using established methods (Gray & Whittaker (1962) J. Anat. 96:79-88). In brief, tissue was homogenized in 10 mM HEPES (pH 7.4)/0.32 M sucrose using a motorized glass-TEFLON homogenizer. To separate the P2 synaptosomal fraction, the homogenate was spun for 5 minutes at 800×g; the supernatant from three successive spins was then centrifuged for 20 minutes at 12,000×g. Tissue or synaptosomal pellets were lysed by freezing and thawing, subsequent syringe passage in ice-cold radioimmunoprecipitation assay buffer (50 mM Tris-HCl (pH 7.4), 1% NP-40, 0.25% sodium deoxycholate, 150 mM NaCl, 1 mM EDTA, and protease inhibitor cocktail tablets (Roche), and finally brief sonication. Concentrations of protein lysates were determined by the BCA assay (Thermo Scientific). A 25 μg sample of each protein extract was electrophoresed on a 10% SDS-PAGE gel, and protein was transferred onto polyvinylidene difluoride membranes (Invitrogen). The primary antibodies used were goat anti-SERCA2 (1:250, sc-8095; Santa Cruz Biotechnology) and mouse anti-β-actin (1:10000, A5316; Sigma-Aldrich). […]

## miR-98: microRNA; human mature sequence UGAGGUAGUAAGUUGUAUUGUU (SEQ ID NO:4) (UGAGGUAGUAAGUUGUAUUGUU; expressed or natural sequence; listed as Homo sapiens)
[1]
  rescue of increased LTP in Dgcr8+/− hippocampus: sufficient to rescue aberrant LTP

## C/C=C(/C)C(=O)O[C@H]1C(C)=C2[C@H]([C@@H]1OC(=O)CCCCCCC)[C@@](C)(OC(C)=O)C[C@H](OC(=O)CCC)[C@@]1(O)[C@H]2OC(=O)[C@@]1(C)O [thapsigargin]
[2]; six hours after induction, 4 μM, slices from Dgcr8+/− mice, p=0.014
  fEPSP slope increase in the absence versus the presence of thapsigargin: approximately 120%
[2]; thapsigargin 4 μM, slices from mature Dgcr8+/− mice
  LTP increase in Dgcr8+/− slices: rescued the LTP increase
[2]; thapsigargin 4 μM, wild-type slices, p=0.974
  LTP in slices from wild-type littermates: did not affect LTP

## miR-185: microRNA; human mature sequence UGGAGAGAAAGGCAGUUCCUGA (SEQ ID NO:6) (UGGAGAGAAAGGCAGUUCCUGA; expressed or natural sequence; listed as Homo sapiens)
SERCA2
  SERCA2 levels (quantitative western blot): decreased
[1]
  rescue of increased LTP in Dgcr8+/− hippocampus: sufficient to rescue the increased LTP

## miR-25: microRNA; human mature sequence CAUUGCACUUGUCUCGGUCUGA (SEQ ID NO:2) (CAUUGCACUUGUCUCGGUCUGA; expressed or natural sequence; listed as Homo sapiens)
SERCA2
  SERCA2 levels (quantitative western blot): decreased
[1]
  rescue of increased LTP in Dgcr8+/− hippocampus: sufficient to rescue the increased LTP
